According to US4309559A, “Sulphonamides useful as pesticides” (FBC Limited, priority 1977, dated 1982):

Experiments:
Type in all cases: in vivo
Barley [1] = assay: Surface spray (II), barley; details: 21 days, 0=no effect, 100=complete suppression
From the text: (§1) Each of the compounds listed below was formulated as: […]
(§2) (II) An aqueous suspension together with 1000 ppm of the wetting agent Lissapol NX. The surfaces of an additional set of pans with seeds already sown were then sprayed with 2.8 or 1.4 kg/ha in 450 liters/hectare, and the pans kept in the controlled environment room for 21 days.
(§3) The plants were then visually assessed for any growth regulatory or herbicidal effects. All differences from an untreated control were scored on a scale from 0-100, where 0 signifies no effect and 100 signifies complete suppression.
(§4) The results are shown in the following table where I stands for soil incorporation and II for surface spray.

[2] = tested on: Barnyardgrass (Echinochloa crus-galli); assay: Post-emergence foliar spray of monocotyledons, barnyardgrass; details: foliar spray 2.8 kg/ha, 14 days, 0=no effect, 100=complete kill
Description: (§5) Seeds of the monocotyledon species listed below were sown in anodised aluminium pans, 19 cm long×9.5 cm wide×5.0 cm deep, containing John Innes I potting compost. They were then watered and placed in a controlled environment room (22° C.; 65-85% relative humidity; 14 hours per day artificial illumination at 17,000 lux). 14 days after sowing, the seedlings were given a foliar spray of the compound of Example 44, formulated as an aqueous suspension together with 2000 ppm of the wetting agent Lissapol NX. The dosage rate was adjusted to be 2.8 kg active ingredient in 450 liters per hectare. After a further 14 days in the controlled environment room, the plants were visually assessed for any growth regulatory or herbicidal effect. All differences from an untreated control were scored on a scale from 0-100 where 0 signifies no effect and 100 signifies complete kill.
(§6) The compounds listed below were tested according to the procedure of Example 66 but including rice (Oryza sativa) as an additional test species.

Barley (Hordeum vulgare) = assay: Post-emergence foliar spray of monocotyledons, barley; details: foliar spray 2.8 kg/ha, 14 days, 0=no effect, 100=complete kill
Description: as §5, §6

Cotton [3] = assay: Surface spray (II), cotton; details: 21 days, 0=no effect, 100=complete suppression
From the text: as §1, §2, §3, §4

Barnyard Grass [4] = assay: Soil incorporation (I), barnyard grass; details: 21 days, 0=no effect, 100=complete suppression
From the text: as §1
(§7) (I) an attaclay/sand dust and incorporated in John Innes I potting compost at a rate equivalent to 6.5 and 3.25 parts per million weight/volume of active ingredient to soil and placed in anodised aluminium pans, 19 cm long×9.5 cm wide×5.0 cm high. This is approximately equivalent to a surface application of 2.8 and 1.4 kg active ingredient per hectare cultivated to a depth of 5 cm. Seeds of the species listed below were sown in the treated soil, one species per pan, watered and placed in a controlled environment room (22° C.; 65-85% relative humidity and 14 hours artificial illumination at 17,000 lux) for 21 days.
as §3, §4

Carrot [5] = assay: Surface spray (II), carrot; details: 21 days, 0=no effect, 100=complete suppression
From the text: as §1, §2, §3, §4

Barley [6] = assay: Soil incorporation (I), barley; details: 21 days, 0=no effect, 100=complete suppression
From the text: as §1, §7, §3, §4

Wheat [7] = assay: Surface spray (II), wheat; details: 21 days, 0=no effect, 100=complete suppression
From the text: as §1, §2, §3, §4

Rice [8] = assay: Surface spray (II), rice; details: 21 days, 0=no effect, 100=complete suppression
From the text: as §1, §2, §3, §4

Tomato [9] = assay: Soil incorporation (I), tomato; details: 21 days, 0=no effect, 100=complete suppression
From the text: as §1, §7, §3, §4

Tomato [10] = assay: Surface spray (II), tomato; details: 21 days, 0=no effect, 100=complete suppression
From the text: as §1, §2, §3, §4

rice (Oryza sativa) = assay: Post-emergence foliar spray of monocotyledons, rice; details: foliar spray 2.8 kg/ha, 14 days, 0=no effect, 100=complete kill
Description: as §5, §6

Rice [11] = assay: Soil incorporation (I), rice; details: 21 days, 0=no effect, 100=complete suppression
From the text: as §1, §7, §3, §4

Barnyard Grass [12] = assay: Surface spray (II), barnyard grass; details: 21 days, 0=no effect, 100=complete suppression
From the text: as §1, §2, §3, §4

Carrot [13] = assay: Soil incorporation (I), carrot; details: 21 days, 0=no effect, 100=complete suppression
From the text: as §1, §7, §3, §4

Cotton [14] = assay: Soil incorporation (I), cotton; details: 21 days, 0=no effect, 100=complete suppression
From the text: as §1, §7, §3, §4

Wheat [15] = assay: Soil incorporation (I), wheat; details: 21 days, 0=no effect, 100=complete suppression
From the text: as §1, §7, §3, §4

[16] = tested on: Wheat (Triticum aestivum); assay: Post-emergence foliar spray of monocotyledons, wheat; details: foliar spray 2.8 kg/ha, 14 days, 0=no effect, 100=complete kill
Description: as §5, §6

CS(=O)(=O)N(CC(N)=S)c1ccc(Cl)c(Cl)c1 [Example 85, N-(thiocarbamoylmethyl)-3,4-dichloromethanesulphonanilide]
growth regulatory or herbicidal effect score (Barley [1]; row 3.25 ppm (1.4 kg/ha)): 0 | growth regulatory or herbicidal effect score (Barley [1]; row 6.5 ppm (2.8 kg/ha)): 0 | growth regulatory or herbicidal effect score [2]: 90 | growth regulatory or herbicidal effect score (Barley (Hordeum vulgare)): 0 | growth regulatory or herbicidal effect score (Cotton [3]; row 3.25 ppm (1.4 kg/ha)): 0 | growth regulatory or herbicidal effect score (Cotton [3]; row 6.5 ppm (2.8 kg/ha)): 0 | growth regulatory or herbicidal effect score (Barnyard Grass [4]; I soil incorporation 3.25 ppm): 90 | growth regulatory or herbicidal effect score (Barnyard Grass [4]; I soil incorporation 6.5 ppm): 90 | growth regulatory or herbicidal effect score (Carrot [5]; row 3.25 ppm (1.4 kg/ha)): 0 | growth regulatory or herbicidal effect score (Carrot [5]; row 6.5 ppm (2.8 kg/ha)): 0 | growth regulatory or herbicidal effect score (Barley [6]; I soil incorporation 3.25 ppm): 0 | growth regulatory or herbicidal effect score (Barley [6]; I soil incorporation 6.5 ppm): 0 | growth regulatory or herbicidal effect score (Wheat [7]; row 3.25 ppm (1.4 kg/ha)): 0 | growth regulatory or herbicidal effect score (Wheat [7]; row 6.5 ppm (2.8 kg/ha)): 0 | growth regulatory or herbicidal effect score (Rice [8]; row 3.25 ppm (1.4 kg/ha)): 0 | growth regulatory or herbicidal effect score (Rice [8]; row 6.5 ppm (2.8 kg/ha)): 0 | growth regulatory or herbicidal effect score (Tomato [9]; I soil incorporation 3.25 ppm): 0 | growth regulatory or herbicidal effect score (Tomato [9]; I soil incorporation 6.5 ppm): 0 | growth regulatory or herbicidal effect score (Tomato [10]; row 3.25 ppm (1.4 kg/ha)): 0 | growth regulatory or herbicidal effect score (Tomato [10]; row 6.5 ppm (2.8 kg/ha)): 0 | growth regulatory or herbicidal effect score (rice (Oryza sativa)): 0 | growth regulatory or herbicidal effect score (Rice [11]; I soil incorporation 3.25 ppm): 0 | growth regulatory or herbicidal effect score (Rice [11]; I soil incorporation 6.5 ppm): 0 | growth regulatory or herbicidal effect score (Barnyard Grass [12]; row 3.25 ppm (1.4 kg/ha)): 90 | growth regulatory or herbicidal effect score (Barnyard Grass [12]; row 6.5 ppm (2.8 kg/ha)): 100 | growth regulatory or herbicidal effect score (Carrot [13]; I soil incorporation 3.25 ppm): 0 | growth regulatory or herbicidal effect score (Carrot [13]; I soil incorporation 6.5 ppm): 0 | growth regulatory or herbicidal effect score (Cotton [14]; I soil incorporation 3.25 ppm): 0 | growth regulatory or herbicidal effect score (Cotton [14]; I soil incorporation 6.5 ppm): 0 | growth regulatory or herbicidal effect score (Wheat [15]; I soil incorporation 3.25 ppm): 0 | growth regulatory or herbicidal effect score (Wheat [15]; I soil incorporation 6.5 ppm): 0 | growth regulatory or herbicidal effect score [16]: 0

Cc1ccc(N(CC#N)S(C)(=O)=O)cc1Cl [Example 131]
growth regulatory or herbicidal effect score (Barley [1]; row 3.25 ppm (1.4 kg/ha)): 0 | growth regulatory or herbicidal effect score (Barley [1]; row 6.5 ppm (2.8 kg/ha)): 0 | growth regulatory or herbicidal effect score [2]: 90 | growth regulatory or herbicidal effect score (Barley (Hordeum vulgare)): 10 | growth regulatory or herbicidal effect score (Cotton [3]; row 3.25 ppm (1.4 kg/ha)): 0 | growth regulatory or herbicidal effect score (Cotton [3]; row 6.5 ppm (2.8 kg/ha)): 0 | growth regulatory or herbicidal effect score (Barnyard Grass [4]; I soil incorporation 3.25 ppm): 50 | growth regulatory or herbicidal effect score (Barnyard Grass [4]; I soil incorporation 6.5 ppm): 70 | growth regulatory or herbicidal effect score (Carrot [5]; row 3.25 ppm (1.4 kg/ha)): 0 | growth regulatory or herbicidal effect score (Carrot [5]; row 6.5 ppm (2.8 kg/ha)): 0 | growth regulatory or herbicidal effect score (Barley [6]; I soil incorporation 3.25 ppm): 0 | growth regulatory or herbicidal effect score (Barley [6]; I soil incorporation 6.5 ppm): 0 | growth regulatory or herbicidal effect score (Wheat [7]; row 3.25 ppm (1.4 kg/ha)): 0 | growth regulatory or herbicidal effect score (Wheat [7]; row 6.5 ppm (2.8 kg/ha)): 0 | growth regulatory or herbicidal effect score (Rice [8]; row 3.25 ppm (1.4 kg/ha)): 0 | growth regulatory or herbicidal effect score (Rice [8]; row 6.5 ppm (2.8 kg/ha)): 0 | growth regulatory or herbicidal effect score (Tomato [9]; I soil incorporation 3.25 ppm): 0 | growth regulatory or herbicidal effect score (Tomato [9]; I soil incorporation 6.5 ppm): 0 | growth regulatory or herbicidal effect score (Tomato [10]; row 3.25 ppm (1.4 kg/ha)): 0 | growth regulatory or herbicidal effect score (Tomato [10]; row 6.5 ppm (2.8 kg/ha)): 0 | growth regulatory or herbicidal effect score (rice (Oryza sativa)): 0 | growth regulatory or herbicidal effect score (Rice [11]; I soil incorporation 3.25 ppm): 0 | growth regulatory or herbicidal effect score (Rice [11]; I soil incorporation 6.5 ppm): 0 | growth regulatory or herbicidal effect score (Barnyard Grass [12]; row 3.25 ppm (1.4 kg/ha)): 60 | growth regulatory or herbicidal effect score (Barnyard Grass [12]; row 6.5 ppm (2.8 kg/ha)): 80 | growth regulatory or herbicidal effect score (Carrot [13]; I soil incorporation 3.25 ppm): 0 | growth regulatory or herbicidal effect score (Carrot [13]; I soil incorporation 6.5 ppm): 0 | growth regulatory or herbicidal effect score (Cotton [14]; I soil incorporation 3.25 ppm): 0 | growth regulatory or herbicidal effect score (Cotton [14]; I soil incorporation 6.5 ppm): 0 | growth regulatory or herbicidal effect score (Wheat [15]; I soil incorporation 3.25 ppm): 0 | growth regulatory or herbicidal effect score (Wheat [15]; I soil incorporation 6.5 ppm): 0 | growth regulatory or herbicidal effect score [16]: 5
